From ChEMBL document CHEMBL3217743, “Reduction of acyl glucuronidation in a series of acidic 11-hydroxysteroid dehydrogenase type 1 (11-HSD1) inhibitors: the discovery of AZD6925” (Medchemcomm, 2012)

How the values were obtained:
[1] = Clearance in rat; format: ADME, organism-based; conditions: in vivo
in vivo = conditions: rat
[2] = Fraction unbound in rat plasma by equilibrium dialysis technique; format: ADME, cell-free
[3] = Clearance in rat hepatocytes measured per 10^6 cells; format: ADME, cell-based, Hepatocyte; conditions: read-out: CLH
[4] = Octanol-buffer partition coefficient, log D of the compound at pH 7.4 after 30 mins by shake-flask method; format: physicochemical
[5] = Apparent permeability from apical to basolateral side in human Caco2 cells; format: ADME, cell-based; conditions: Caco-2
[6] = Drug excretion in bile duct cannulated rat urine assessed as compound remaining by HPLC analysis; format: ADME, tissue-based; conditions: read-out: Stability
[7] = Inhibition of N-terminal 6-His-tagged dog full length 11beta-HSD1 assessed as conversion of cortisone to cortisol after 25 mins by HTRF assay; design: species or system Canis lupus familiaris
[8] = Inhibition of N-terminal 6-His-tagged cynomolgus monkey full length 11beta-HSD1 assessed as conversion of cortisone to cortisol after 25 mins by HTRF assay; design: species or system Macaca fascicularis
[9] = Drug excretion in bile duct cannulated rat urine assessed as ratio of glucuronidated to oxidized compound level by HPLC analysis; format: ADME; conditions: in vivo
[10] = Drug metabolism in dog hepatocytes assessed as ratio of glucuronidated to oxidized compound level by LC-MS/MS analysis; format: ADME, cell-based, Canis lupus familiaris, Hepatocyte
[11] = Drug metabolism in rat hepatocytes assessed as ratio of glucuronidated to oxidized compound level by LC-MS/MS analysis; format: ADME, cell-based, Hepatocyte
[12] = Drug excretion in bile duct cannulated rat bile assessed as ratio of glucuronidated to oxidized compound level by HPLC analysis; format: ADME, tissue-based; conditions: in vivo
[13] = Drug metabolism in human hepatocytes assessed as ratio of glucuronidated to oxidized compound level by LC-MS/MS analysis; format: ADME, cell-based, Hepatocyte

Structure (SMILES) | clearance [1] [mL/min/kg] | bioavailability (in vivo) [%] | fraction unbound [2] | hepatocyte CLint [3] [µL/min/1e6 cells] | logD at 0.5 h [4] | Papp A→B [5] [×10⁻⁶ cm/s] | dose excreted [6] [%] | IC50 [7] [nM] | IC50 [8] [nM] | Ratio [9] | Ratio [10] | Ratio [11] | Ratio [12] | Ratio [13]
CCCSc1nc(N2CC[C@H](CC(=O)O)C2)ccc1C(=O)NC1CCCCC1 | 2 | 96 | 0.01 | < 2 | 1.7 |  |  |  |  |  |  |  |  | 
O=C(N[C@H]1C2CC3CC1C[C@](O)(C3)C2)c1ccc(N2C[C@@H]3[C@H](C2)[C@H]3C(=O)O)nc1SC1CCCC1 | 43 | 57 | 0.04 | 4 | 1.5 |  |  |  |  |  |  |  |  | 
CCCSc1nc(N2CCCC(C(C)(C)C(=O)O)C2)ccc1C(=O)NC1CCCCC1 (configuration not stated) | 9 | 84 | 0.004 | 22 | 3.3 |  |  |  |  |  |  |  |  | 
CCCSc1nc(N2CCC[C@@H](Cc3nnn[nH]3)C2)ccc1C(=O)NC1CCCCC1 | 31 | 21 | 0.006 | 9 | 2.4 |  |  |  |  |  |  |  |  | 
CCCSc1nc(N2CCC[C@@H](CC(=O)NS(C)(=O)=O)C2)ccc1C(=O)NC1CCCCC1 | 35 | 5 | 0.017 | 38 | 1.6 |  |  |  |  |  |  |  |  | 
CCCSc1nc(N2C[C@@H]3[C@H](C2)[C@H]3C(=O)O)ccc1C(=O)N[C@H]1C2CC3CC1C[C@](O)(C3)C2 | 42 | 48 | 0.108 | < 2 | 0.8 |  |  |  |  |  |  |  |  | 
CCCSc1nc(N2CCCC(C3(C(=O)O)CC3)C2)ccc1C(=O)NC1CCCCC1 (configuration not stated) | 8 | 71 | 0.002 | 15 | 3.5 |  |  |  |  |  |  |  |  | 
CCCSc1nc(N2CCC[C@@H](CC(=O)O)C2)ccc1C(=O)NC1CCCCC1 [AZD-4017] |  | 66 | 0.018 | < 2 |  |  | 4 | 3770 | 29 | 2.4 | 4.1 | 2.1 | 7.5 | 6

More lines, now with the values ahead:

clearance [1] [mL/min/kg] | bioavailability (in vivo) [%] | fraction unbound [2] | hepatocyte CLint [3] [µL/min/1e6 cells] | logD at 0.5 h [4] | Papp A→B [5] [×10⁻⁶ cm/s] | dose excreted [6] [%] | IC50 [7] [nM] | IC50 [8] [nM] | Ratio [9] | Ratio [10] | Ratio [11] | Ratio [12] | Ratio [13] | Structure (SMILES)
18 | 3 | 0.034 | 20 | 1.2 | 2 |  |  |  |  |  |  |  |  | O=C(O)[C@H]1[C@@H]2CN(c3ccc(C(=O)N4CCC(c5cccnc5)C4)c(SC4CCCC4)n3)C[C@@H]21 (some centres not stated)
3 | 52 | 0.012 | 3 | 1.1 |  |  |  |  |  |  |  |  |  | CCCSc1nc(N2CCC(C(=O)O)C2)ccc1C(=O)NC1CCCCC1 (configuration not stated)
9 | 94 | 0.005 | 7 | 3.4 |  |  |  |  |  |  |  |  |  | O=C(N[C@H]1C2CC3CC1C[C@](OC(F)F)(C3)C2)c1ccc(N2C[C@@H]3[C@H](C2)[C@H]3C(=O)O)nc1SC1CCCC1
2 | 80 | 0.025 | < 2 | 1.8 |  |  |  |  |  |  |  |  |  | CCCSc1nc(N2C[C@@H]3[C@H](C2)[C@H]3C(=O)O)ccc1C(=O)NC1CCCCC1
